Data as given in PubChem BioAssay AID588589 (The Scripps Research Institute Molecular Screening Center, 2011).
Active and inactive are the calls of the source. The rule behind the calls is not given here.

System: Fam108b (ABHD17B) [Mus musculus], recombinant soluble
Experiment: mouse Fam108b hydrolase inhibitors, soluble construct – biochemical, gel-based ABPP, soluble form, SAR follow-up (AID 588589)
Conditions: fluorophosphonate probe, at 5 µM, hits give high values

Row | inhibition | Compound
1 | 0% (inactive) | O=c1oc(-c2ccc(F)cc2)nc2scc(-c3cccs3)c12
2 | 0% (inactive) | O=c1oc(-c2ccc(-c3ccccc3)cc2)nc2scc(-c3ccccc3)c12
3 | 0% (inactive) | O=C1CCC(=O)N1c1ccc(-c2nc3scc(-c4ccc(F)cc4)c3c(=O)o2)cc1
4 | 0% (inactive) | COc1ccc(-c2csc3nc(-c4ccccc4Br)oc(=O)c23)cc1
5 | 0% (inactive) | O=c1oc(-c2cccc(Cl)c2)nc2scc(-c3ccc(Br)cc3)c12
6 | 50% (inactive) | O=c1oc(-c2ccccc2F)nc2scc(-c3ccc(Br)cc3)c12
7 | 0% (inactive) | Cc1ccccc1-c1nc2scc(-c3ccc(Br)cc3)c2c(=O)o1
8 | 0% (inactive) | COc1cc(-c2nc3scc(-c4ccccc4)c3c(=O)o2)cc(OC)c1OC
9 | 35% (inactive) | CCOc1ccc(-c2csc3nc(-c4ccccc4OC)oc(=O)c23)cc1
10 | 45% (inactive) | O=c1oc(Cc2ccccc2)nc2scc(-c3ccccc3)c12
11 | 0% (inactive) | O=c1oc(-c2ccc(Br)cc2)nc2scc(-c3cccs3)c12
12 | 5% (inactive) | CCOc1ccc(-c2csc3nc(-c4ccccc4C)oc(=O)c23)cc1
13 | 55% (inactive) | O=c1oc(-c2cccs2)nc2scc(-c3ccccc3)c12
14 | 65% | O=C1CCC(=O)N1c1ccc(-c2nc3scc(-c4ccccc4)c3c(=O)o2)cc1
15 | 0% (inactive) | COc1ccc(-c2csc3nc(-c4ccc(C)cc4)oc(=O)c23)cc1
16 | 0% (inactive) | CC(C)(C)c1ccc(-c2nc3scc(-c4cccs4)c3c(=O)o2)cc1
17 | 0% (inactive) | COc1ccc(-c2csc3nc(-c4ccccc4C)oc(=O)c23)cc1
18 | 5% (inactive) | Cc1ccc(-c2csc3nc(-c4ccc(C(C)(C)C)cc4)oc(=O)c23)cc1

Row | inhibition | Compound
19 | 15% (inactive) | Cc1ccccc1-c1nc2scc(-c3cccs3)c2c(=O)o1
20 | 0% (inactive) | Cc1ccc(-c2csc3nc(-c4ccc(-c5ccccc5)cc4)oc(=O)c23)cc1
21 | 5% (inactive) | O=c1oc(-c2cccc(Br)c2)nc2scc(-c3ccccc3)c12
22 | 0% (inactive) | CC(C)(C)c1ccc(-c2nc3scc(-c4ccccc4)c3c(=O)o2)cc1
23 | 0% (inactive) | O=C1CCC(=O)N1c1ccc(-c2nc3scc(-c4cccs4)c3c(=O)o2)cc1
24 | 5% (inactive) | COc1ccc(-c2csc3nc(-c4cccc5ccccc45)oc(=O)c23)cc1OC
25 | 0% (inactive) | O=c1oc(-c2ccc(Br)cc2)nc2c1cnn2-c1ccccc1
26 | 0% (inactive) | Cc1ccc(-c2nc3scc(-c4ccc(Br)cc4)c3c(=O)o2)cc1
27 | 70% | CC(C)(C)c1nc2scc(-c3ccccc3)c2c(=O)o1
28 | 0% (inactive) | CCOc1ccc(-c2csc3nc(-c4ccc(F)cc4)oc(=O)c23)cc1
29 | 0% (inactive) | Cc1sc2nc(-c3ccc(-c4ccccc4)cc3)oc(=O)c2c1C
30 | 5% (inactive) | COc1ccc(-c2csc3nc(Cc4ccccc4)oc(=O)c23)cc1OC
31 | 0% (inactive) | O=c1oc(-c2ccc(F)cc2)nc2scc(-c3ccc(Br)cc3)c12
32 | 0% (inactive) | COc1ccc(-c2csc3nc(-c4ccc(F)cc4)oc(=O)c23)cc1
33 | 0% (inactive) | O=c1oc(-c2ccc([N+](=O)[O-])cc2)nc2c1cnn2-c1ccccc1
34 | 80% | O=c1oc(-c2ccccc2F)nc2scc(-c3cccs3)c12
35 | 0% (inactive) | COc1ccc(-c2csc3nc(-c4ccc(Cl)cc4)oc(=O)c23)cc1

Second part, the compound before the results:

Row | Compound | inhibition
36 | O=c1oc(/C=C/c2ccccc2)nc2scc(-c3cccs3)c12 | 10% (inactive)
37 | Cc1nsc2nc(-c3ccccc3Cl)oc(=O)c12 | 0% (inactive)
38 | O=C(Nc1cccc(-c2nc3ccccc3c(=O)o2)c1)c1ccccc1 | 50% (inactive)
39 | COc1cc2nc(-c3ccccc3SC)oc(=O)c2cc1OC | 15% (inactive)
40 | S=c1sc(-c2ccccc2Cl)nc2ccccc12 | 35% (inactive)
41 | O=c1oc(-c2ccccc2F)nc2c1cnn2-c1ccccc1 | 75%
42 | Cc1nsc2nc(-c3cc(S(C)(=O)=O)ccc3Cl)oc(=O)c12 | 5% (inactive)
43 | Cc1nsc2nc(-c3ccc(F)cc3Cl)oc(=O)c12 | 25% (inactive)
44 | Cc1nc2c(oc3ccccc32)c(=O)o1 | 25% (inactive)
45 | O=c1oc(-c2ccco2)nc2cccc(F)c12 | 5% (inactive)
46 | COCc1nsc2nc(-c3ccccc3Cl)oc(=O)c12 | 0% (inactive)
47 | Cc1nsc2nc(-c3cc(S(=O)(=O)N(C)Cc4ccccc4)ccc3Cl)oc(=O)c12 | 30% (inactive)
48 | Cc1ccc2nc(-c3ccccc3Cl)oc(=O)c2c1 | 15% (inactive)
49 | Cc1nsc2nc(-c3cc4ccccc4nc3Cl)oc(=O)c12 | 40% (inactive)
50 | Cc1nsc2nc(-c3ccc([N+](=O)[O-])cc3Cl)oc(=O)c12 | 10% (inactive)
51 | CCOc1cc2nc(-c3ccccc3SC)oc(=O)c2cc1OCC | 5% (inactive)
52 | COc1cc2nc(-c3c(OC)cccc3OC)oc(=O)c2cc1OC | 0% (inactive)
53 | Cc1nsc2nc(-c3cc(Cl)ccc3Cl)oc(=O)c12 | 15% (inactive)
54 | Cc1nsc2nc(-c3cc([N+](=O)[O-])ccc3Cl)oc(=O)c12 | 15% (inactive)

Row | Compound | inhibition
55 | CCCc1nsc2nc(-c3ccccc3Cl)oc(=O)c12 | 15% (inactive)
56 | CC(=O)Oc1ccc2nc(-c3ccccc3)oc(=O)c2c1 | 0% (inactive)
57 | Cc1nsc2nc(-c3cc(Br)cnc3Cl)oc(=O)c12 | 10% (inactive)
58 | CCCOc1cccc(-c2nc3cc(OC)c(OC)cc3c(=O)o2)c1 | 10% (inactive)
59 | Cc1nsc2nc(-c3sc4ccccc4c3Cl)oc(=O)c12 | 20% (inactive)
60 | O=C1OC(=O)c2cc(-c3nc4ccccc4c(=O)o3)ccc21 | 0% (inactive)
61 | O=c1oc(-c2cc3ccccc3o2)nc2ccc(Br)cc12 | 0% (inactive)
62 | Cc1nsc2nc(-c3cccnc3Cl)oc(=O)c12 | 5% (inactive)
63 | O=c1oc(-c2ccccc2Cl)nc2c1oc1ccccc12 | 40% (inactive)
64 | O=c1oc(COc2ccccc2Cl)nc2ccccc12 | 10% (inactive)
65 | COc1ccc(/C=C/c2nc3scc(-c4cccs4)c3c(=O)o2)cc1 | 0% (inactive)
66 | COc1cc2nc(-c3ccc(C(C)(C)C)cc3)oc(=O)c2cc1OC | 0% (inactive)
67 | O=c1oc(-c2cccs2)nc2cc(Cl)ccc12 | 40% (inactive)
68 | Cc1ccc(-c2nc3sc(C)c(C)c3c(=O)o2)cc1 | 0% (inactive)
69 | Cc1nsc2nc(-c3cc(S(=O)(=O)N4CCCCC4)ccc3Cl)oc(=O)c12 | 15% (inactive)
70 | CCN(CC)S(=O)(=O)c1ccc(Cl)c(-c2nc3snc(C)c3c(=O)o2)c1 | 0% (inactive)
71 | CCc1nc2sc(-c3ccccc3)c(-c3ccccc3)c2c(=O)o1 | 55% (inactive)
72 | O=c1oc(-c2cccc(Cl)c2)nc2c1cnn2-c1ccccc1 | 20% (inactive)
73 | Cc1nsc2nc(-c3cc(S(=O)(=O)N4CCCC4)ccc3Cl)oc(=O)c12 | 65%

Row | Compound | inhibition
74 | CCc1nsc2nc(-c3ccccc3Cl)oc(=O)c12 | 20% (inactive)
75 | Cc1noc2nc(-c3ccccc3Cl)oc(=O)c12 | 5% (inactive)
76 | Cc1nsc2nc(-c3ccc(Cl)cc3Cl)oc(=O)c12 | 20% (inactive)
77 | O=c1oc(-c2ccc(C(F)(F)F)cc2)nc2c1oc1ccc(Cl)cc12 | 40% (inactive)
78 | CC(C)(C)c1ccc(-c2nc3sc4c(c3c(=O)o2)CCCC4)cc1 | 0% (inactive)
79 | O=c1oc(-c2ccccc2)nc2c1oc1ccc(Cl)cc12 | 40% (inactive)
80 | Cc1nsc2nc(-c3cc(Cl)nnc3Cl)oc(=O)c12 | 10% (inactive)
81 | O=c1oc(-c2ccccn2)nc2ccccc12 | 45% (inactive)
82 | CC(C)c1nsc2nc(-c3ccccc3Cl)oc(=O)c12 | 0% (inactive)
83 | O=c1oc(-c2ccccc2)nc2c1cnn2-c1ccccc1 | 70%
84 | Cc1nsc2nc(-c3cc(F)c(F)cc3Cl)oc(=O)c12 | 15% (inactive)
85 | CCOc1cccc(-c2nc3ccc(OC(C)=O)cc3c(=O)o2)c1 | 5% (inactive)
86 | O=c1oc(-c2ccccc2Cl)nc2c1cnn2-c1ccccc1 | 80%
87 | O=c1oc(-c2ccco2)nc2c1cnn2-c1ccccc1 | 50% (inactive)
88 | Cc1nsc2nc(-c3cc(S(=O)(=O)N(C)C)ccc3Cl)oc(=O)c12 | 10% (inactive)
89 | O=c1oc(-c2cccc(F)c2)nc2c1cnn2-c1ccccc1 | 70%
90 | O=c1oc(-c2cccs2)nc2c1cnn2-c1ccccc1 | 70%
91 | O=c1oc(-c2ccccc2)nc2c1oc1ccccc12 | 35% (inactive)
92 | CSc1ccc(Cl)c(-c2nc3snc(C)c3c(=O)o2)c1 | 10% (inactive)
